Results published in US9695155B2, “Herbicidal substituted pyrimidinyloxy benzene compounds” (E. I. DU PONT DE NEMOURS AND COMPANY, priority 2013, dated 2017).

Key:
[1] = test system: yellow nutsedge; assay: Test C postemergence; type: in vivo, Cyperus esculentus
Procedure, shortened: (§1)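 Preemergence: seeds sown in a loam soil–sand blend and sprayed with test chemical in a non-phytotoxic solvent mixture containing surfactant. Postemergence: plants at 2 to 18 cm (1- to 4-leaf stage) in peat-based medium, treated with the same formulation. Greenhouse 13 to 15 days, then visual rating 0 (no effect) to 100 (complete control).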

[2] = test system: wheat, winter; assay: Test C postemergence; type: in vivo, Triticum aestivum
Procedure, shortened: as §1

[3] = test system: barnyardgrass; assay: Test A postemergence; type: in vivo, Echinochloa crus-galli; conditions: Echinochloa crus-galli, post-emergence, 240 h, 0 to 100 scale where 0 is no effect and 100 is complete control
Procedure, shortened: (§2)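 Injury scores run from 0, no effect, to 100, complete control, judged by eye against untreated plants roughly 10 days after treatment. Chemicals carried a surfactant in a non-phytotoxic solvent and went onto loam–sand soil preemergence or onto one- to two-leaf seedlings postemergence.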

[4] = test system: galium; assay: Test C postemergence; type: in vivo, Galium aparine; conditions: Galium, post-emergence
Procedure, shortened: as §1

[5] = test system: sedge, umbrella; assay: Test B flooded paddy test; type: in vivo, Cyperus difformis; conditions: Cyperus difformis, Flood, 250 g ai/ha; 0 to 100 scale where 0 is no effect and 100 is complete control; read-out: Plant response rating, Sedge, Umbrella
Procedure, shortened: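 Plants were grown to the 2-leaf stage, then pots were flooded to 3 cm above the soil and compounds were applied directly into the paddy water. That depth was held throughout, and after 13 to 15 days in the greenhouse injury was rated visually against controls on a 0–100 scale (0 no effect, 100 complete control).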

[6] = test system: wheat; assay: Test A postemergence; type: in vivo, Triticum aestivum; conditions: Triticum aestivum, post-emergence, 240 h, 0 to 100 scale where 0 is no effect and 100 is complete control
Procedure, shortened: as §2

[7] = test system: ragweed; assay: Test C postemergence; type: in vivo, Ambrosia elatior
Procedure, shortened: as §1

[8] = test system: giant foxtail; assay: Test C postemergence; type: in vivo, Setaria faberii; conditions: Setaria faberi, post-emergence
Procedure, shortened: as §1

[9] = test system: giant foxtail; assay: Test A preemergence; type: in vivo, Setaria faberii; conditions: Setaria faberi, pre-emergence, 240 h, 0 to 100 scale where 0 is no effect and 100 is complete control
Procedure, shortened: as §2

[10] = test system: morningglory; assay: Test C postemergence; type: in vivo, Ipomoea coccinea
Procedure, shortened: as §1

[11] = test system: velvetleaf; assay: Test A postemergence; type: in vivo, Abutilon theophrasti; conditions: 0 to 100 scale where 0 is no effect and 100 is complete control
Procedure, shortened: as §2

[12] = 31 g ai/ha, postemergence, visual rating, scale 0 to 100 (0 no effect, 100 complete control), 13 to 15 days

Compound: Fc1cccc(Oc2ncc(Cl)cn2)c1-n1cc(Br)cn1 [Compound 178, 2-[2-(4-bromo-1H-pyrazol-1-yl)-3-fluorophenoxy]-5-chloropyrimidine]
- Nutsedge, Yellow plant response rating [1, 12]: 5
- pest or weed control at 16 g/ha ([1]; Cyperus, post-emergence, 16 g ai/ha, postemergence, 0 is no effect, 100 is complete control, read-out: Plant response rating (0 to 100), Nutsedge, Yellow): 5%
- pest or weed control at 125 g/ha ([1]; Cyperus, post-emergence, 125 g ai/ha, postemergence, visual rating, scale 0 to 100 (0 no effect, 100 complete control), read-out: Plant response rating, Nutsedge, Yellow): 10%
- pest or weed control at 62 g/ha ([1]; Cyperus, post-emergence, Postemergence, 62 g ai/ha, scale 0 to 100 (0 no effect, 100 complete control), read-out: Plant response rating, Nutsedge, Yellow): 5%
- Wheat plant response rating [2, 12]: 0
- plant injury at 16 g/ha ([2]; Triticum aestivum, post-emergence, 16 g ai/ha, postemergence, 0 is no effect, 100 is complete control, read-out: Plant response rating (0 to 100), Wheat): 0%
- plant injury at 125 g/ha ([2]; Triticum aestivum, post-emergence, 125 g ai/ha, postemergence, visual rating, scale 0 to 100 (0 no effect, 100 complete control), read-out: Plant response rating, Wheat): 0%
- plant injury at 62 g/ha ([2]; Triticum aestivum, post-emergence, Postemergence, 62 g ai/ha, scale 0 to 100 (0 no effect, 100 complete control), read-out: Plant response rating, Wheat): 0%
- pest or weed control at 125 g/ha ([3]; 125 g ai/ha, read-out: Barnyardgrass plant response rating): 70%
- pest or weed control at 500 g/ha ([3]; 500 g ai/ha, read-out: Plant response rating, Barnyardgrass): 100%
- pest or weed control at 16 g/ha ([4]; 16 g ai/ha, postemergence, 0 is no effect, 100 is complete control, read-out: Plant response rating (0 to 100), Galium): 80%
- pest or weed control at 31 g/ha ([4]; 31 g ai/ha, postemergence, visual rating, scale 0 to 100 (0 no effect, 100 complete control), 13 to 15 days, read-out: Galium plant response rating): 75%
- pest or weed control at 125 g/ha ([4]; 125 g ai/ha, postemergence, visual rating, scale 0 to 100 (0 no effect, 100 complete control), read-out: Plant response rating, Galium): 98%
- pest or weed control at 62 g/ha ([4]; Postemergence, 62 g ai/ha, scale 0 to 100 (0 no effect, 100 complete control), read-out: Plant response rating, Galium): 85%
- pest or weed control at 250 g/ha [5]: 0%
- plant injury at 125 g/ha ([6]; 125 g ai/ha, read-out: Wheat plant response rating): 40%
- plant injury at 500 g/ha ([6]; 500 g ai/ha, read-out: Plant response rating, Wheat): 80%
- Ragweed plant response rating [7, 12]: 55
- pest or weed control at 16 g/ha ([7]; Ambrosia artemisiifolia, post-emergence, 16 g ai/ha, postemergence, 0 is no effect, 100 is complete control, read-out: Plant response rating (0 to 100), Ragweed): 20%
- pest or weed control at 125 g/ha ([7]; Ambrosia artemisiifolia, post-emergence, 125 g ai/ha, postemergence, visual rating, scale 0 to 100 (0 no effect, 100 complete control), read-out: Plant response rating, Ragweed): 65%
- pest or weed control at 62 g/ha ([7]; Ambrosia artemisiifolia, post-emergence, Postemergence, 62 g ai/ha, scale 0 to 100 (0 no effect, 100 complete control), read-out: Plant response rating, Ragweed): 30%
- pest or weed control at 16 g/ha ([8]; 16 g ai/ha, postemergence, 0 is no effect, 100 is complete control, read-out: Plant response rating (0 to 100), Foxtail, Giant): 5%
- pest or weed control at 31 g/ha ([8]; 31 g ai/ha, postemergence, visual rating, scale 0 to 100 (0 no effect, 100 complete control), 13 to 15 days, read-out: Foxtail, Giant plant response rating): 5%
- pest or weed control at 125 g/ha ([8]; 125 g ai/ha, postemergence, visual rating, scale 0 to 100 (0 no effect, 100 complete control), read-out: Plant response rating, Foxtail, Giant): 25%
- pest or weed control at 62 g/ha ([8]; Postemergence, 62 g ai/ha, scale 0 to 100 (0 no effect, 100 complete control), read-out: Plant response rating, Foxtail, Giant): 5%
- pest or weed control at 125 g/ha ([9]; 125 g ai/ha, read-out: Plant response rating, Foxtail, Giant): 100%
- pest or weed control at 500 g/ha ([9]; 500 g ai/ha, read-out: Foxtail, Giant plant response rating): 100%
- Morningglory plant response rating [10, 12]: 70
- pest or weed control at 16 g/ha ([10]; Ipomoea, post-emergence, 16 g ai/ha, postemergence, 0 is no effect, 100 is complete control, read-out: Plant response rating (0 to 100), Morningglory): 10%
- pest or weed control at 125 g/ha ([10]; Ipomoea, post-emergence, 125 g ai/ha, postemergence, visual rating, scale 0 to 100 (0 no effect, 100 complete control), read-out: Plant response rating, Morningglory): 65%
- pest or weed control at 62 g/ha ([10]; Ipomoea, post-emergence, Postemergence, 62 g ai/ha, scale 0 to 100 (0 no effect, 100 complete control), read-out: Plant response rating, Morningglory): 85%
- Velvetleaf plant response rating ([11]; 125 g ai/ha): 100
- pest or weed control at 500 g/ha ([11]; Abutilon theophrasti, post-emergence, 240 h, 500 g ai/ha, read-out: Plant response rating, Velvetleaf): 100%
